Measured values from US12655116B2, “Substituted isophthalic acid diamides” (Bayer Aktiengesellschaft, priority 2020, dated 2026).

How the values were obtained:
[1] = tested on: POLCO; test: Pre-emergence herbicidal action against POLCO; format: in vivo, Polygonum convolvulus; details: Fallopia convolvulus, 504 h, dosage 320 g/ha
Procedure, shortened: (§1)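 Sandy loam pots, seeds covered with soil, then surface-treated with WP or EC formulations at 600–800 l/ha water plus 0.2% wetting agent. Greenhouse, 3 weeks. Percent damage vs untreated controls.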

[2] = tested on: ALOMY; test: Post-emergence herbicidal action against ALOMY; format: in vivo, Alopecurus myosuroides; details: Alopecurus myosuroides, 504 h, visual assessment about 3 weeks after treatment vs untreated controls
Procedure, shortened: (§2)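 Herbicidal action is a visual percentage rating (0% = as untreated control, 100% = plants dead) made roughly 3 weeks after treatment. Plants were grown in sandy loam in the greenhouse and treated at the one-leaf stage, 2 to 3 weeks post-sowing. Treatment was a foliar spray of wettable-powder or emulsion-concentrate formulations at 600 to 800 l/ha water plus 0.2% wetting agent.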

[3] = tested on: VIOTR; test: Post-emergence herbicidal action against VIOTR; format: in vivo, Viola tricolor; details: Viola tricolor, 504 h, 80 g/ha
Procedure, shortened: as §2

[4] = tested on: VERPE; test: Post-emergence herbicidal action against VERPE; format: in vivo, Veronica persica; details: Veronica persica, 504 h
Procedure, shortened: as §2

[5] = tested on: AMARE; test: Pre-emergence herbicidal action against AMARE; format: in vivo, Amaranthus retroflexus; details: Amaranthus retroflexus, 504 h, 100% = plants have died, 0% = like control plants
Procedure, shortened: as §1

[6] = tested on: PHBPU; test: Post-emergence herbicidal action against PHBPU; format: in vivo, Pharbitis purpurea; details: Ipomoea purpurea, 504 h, dosage 80 g/ha
Procedure, shortened: as §2

[7] = tested on: HORMU; test: Pre-emergence herbicidal action against HORMU; format: in vivo, Hordeum murinum; details: Hordeum murinum, 504 h, pre-emergence
Procedure, shortened: as §1

[8] = tested on: LOLRI; test: Pre-emergence herbicidal action against LOLRI; format: in vivo, Lolium rigidum; details: Lolium rigidum, 504 h, 320 g/ha
Procedure, shortened: as §1

[9] = tested on: AMARE; test: Post-emergence herbicidal action against AMARE; format: in vivo, Amaranthus retroflexus; details: Amaranthus retroflexus, 504 h, visual assessment about 3 weeks after treatment, 100% = plants have died, 0% = like control plants
Procedure, shortened: as §2

[10] = tested on: ECHCG; test: Pre-emergence herbicidal action against ECHCG; format: in vivo, Echinochloa crus-galli; details: Echinochloa crus-galli, 504 h
Procedure, shortened: as §1

[11] = tested on: STEME; test: Pre-emergence herbicidal action against STEME; format: in vivo, Stellaria media; details: Stellaria media, 504 h
Procedure, shortened: as §1

[12] = tested on: ABUTH; test: Post-emergence herbicidal action against ABUTH; format: in vivo, Abutilon theophrasti; details: Abutilon theophrasti, 504 h, visual assessment about 3 weeks after treatment vs untreated controls
Procedure, shortened: as §2

[13] = tested on: ABUTH; test: Pre-emergence herbicidal action against ABUTH; format: in vivo, Abutilon theophrasti; details: Abutilon theophrasti, 504 h
Procedure, shortened: as §1

[14] = tested on: LOLRI; test: Post-emergence herbicidal action against LOLRI; format: in vivo, Lolium rigidum; details: Lolium rigidum, 504 h
Procedure, shortened: as §2

[15] = tested on: AVEFA; test: Pre-emergence herbicidal action against AVEFA; format: in vivo, Avena fatua; details: Avena fatua, 504 h, pre-emergence
Procedure, shortened: as §1

[16] = tested on: MATIN; test: Post-emergence herbicidal action against MATIN; format: in vivo, Matricaria inodora; details: Tripleurospermum inodorum, 504 h
Procedure, shortened: as §2

[17] = tested on: VIOTR; test: Pre-emergence herbicidal action against VIOTR; format: in vivo, Viola tricolor; details: Viola tricolor, 504 h
Procedure, shortened: as §1

[18] = tested on: SETVI; test: Pre-emergence herbicidal action against SETVI; format: in vivo, Setaria viridis; details: Setaria viridis, 504 h
Procedure, shortened: as §1

[19] = tested on: HORMU; test: Post-emergence herbicidal action against HORMU; format: in vivo, Hordeum murinum; details: Hordeum murinum, 504 h, dosage 80 g/ha
Procedure, shortened: as §2

[20] = tested on: SETVI; test: Post-emergence herbicidal action against SETVI; format: in vivo, Setaria viridis; details: Setaria viridis, 504 h
Procedure, shortened: as §2

[21] = tested on: STEME; test: Post-emergence herbicidal action against STEME; format: in vivo, Stellaria media; details: Stellaria media, 504 h
Procedure, shortened: as §2

[22] = tested on: ALOMY; test: Pre-emergence herbicidal action against ALOMY; format: in vivo, Alopecurus myosuroides; details: Alopecurus myosuroides, pre-emergence, 504 h; 320 g/ha; scored visually after 3 weeks, 100% = plants have died, 0% = like control plants
Procedure, shortened: as §1

CCn1nnnc1NC(=O)c1ccc(C(F)(F)F)c(C(=O)NC)c1SC [Example 2-81]
pest or weed control at 320 g/ha [1]: 100% | pest or weed control at 20 g/ha ([2]; dosage 20 g/ha): 80% | pest or weed control at 80 g/ha ([2]; dosage 80 g/ha): 90% | pest or weed control at 80 g/ha [3]: 90% | pest or weed control at 20 g/ha ([4]; 20 g/ha): 80% | pest or weed control at 80 g/ha ([4]; 80 g/ha): 90% | pest or weed control at 80 g/ha ([5]; 80 g/ha, scored visually after 3 weeks vs untreated controls): 100% | pest or weed control at 320 g/ha ([5]; 320 g/ha, scored visually after 3 weeks): 100% | pest or weed control at 80 g/ha [6]: 90% | pest or weed control at 80 g/ha ([7]; 80 g/ha): 90% | pest or weed control at 320 g/ha ([7]; 320 g/ha): 100% | pest or weed control at 320 g/ha [8]: 90% | pest or weed control at 20 g/ha ([9]; 20 g/ha): 90% | pest or weed control at 80 g/ha ([9]; 80 g/ha): 90% | pest or weed control at 80 g/ha ([10]; 80 g/ha): 100% | pest or weed control at 320 g/ha ([10]; 320 g/ha): 100% | pest or weed control at 80 g/ha ([11]; dosage 80 g/ha): 90% | pest or weed control at 320 g/ha ([11]; dosage 320 g/ha): 100% | pest or weed control at 20 g/ha ([12]; dosage 20 g/ha): 90% | pest or weed control at 80 g/ha ([12]; dosage 80 g/ha): 90% | pest or weed control at 80 g/ha ([13]; 80 g/ha, scored visually after 3 weeks vs untreated controls (100% = plants have died, 0% = like control plants)): 100% | pest or weed control at 320 g/ha ([13]; Dosage: 320 g/ha, scored visually after 3 weeks, 100% = plants have died, 0% = like control plants): 100% | pest or weed control at 20 g/ha ([14]; dosage 20 g/ha): 80% | pest or weed control at 80 g/ha ([14]; dosage 80 g/ha): 90% | pest or weed control at 80 g/ha ([15]; 80 g/ha): 80% | pest or weed control at 320 g/ha ([15]; 320 g/ha, scored visually after 3 weeks, 100% = plants have died, 0% = like control plants): 100% | pest or weed control at 20 g/ha ([16]; dosage 20 g/ha): 100% | pest or weed control at 80 g/ha ([16]; dosage 80 g/ha): 100% | pest or weed control at 80 g/ha ([17]; dosage 80 g/ha): 90% | pest or weed control at 320 g/ha ([17]; dosage 320 g/ha): 100% | pest or weed control at 80 g/ha ([18]; dosage 80 g/ha): 100% | pest or weed control at 320 g/ha ([18]; dosage 320 g/ha): 100% | pest or weed control at 80 g/ha [19]: 80% | pest or weed control at 20 g/ha ([20]; dosage 20 g/ha): 90% | pest or weed control at 80 g/ha ([20]; dosage 80 g/ha): 90% | pest or weed control at 20 g/ha ([21]; 20 g/ha): 90% | pest or weed control at 80 g/ha ([21]; 80 g/ha): 100% | pest or weed control at 320 g/ha [22]: 90%
